Where two headings read alike, the source gives them in different places.
Legend:
[1] = target: T1, α7-type neuronal nicotinic acetylcholine receptors (Rattus norvegicus, UniProt Q05941); assay: [3H]-MLA binding assay, rat brain membranes; settings: for remaining activity at 10 µM: compound 10 μM, 2.5 nM [3H]-MLA, whole brain binding relative to control
T1 construct: The brain tissue was homogenized with a Tekmar Polytron; from tissue; host or cells: male Sprague-Dawley rat brain membranes (whole brain without cortex, striatum and cerebellum)
T1 sequence (Q05941 23-502): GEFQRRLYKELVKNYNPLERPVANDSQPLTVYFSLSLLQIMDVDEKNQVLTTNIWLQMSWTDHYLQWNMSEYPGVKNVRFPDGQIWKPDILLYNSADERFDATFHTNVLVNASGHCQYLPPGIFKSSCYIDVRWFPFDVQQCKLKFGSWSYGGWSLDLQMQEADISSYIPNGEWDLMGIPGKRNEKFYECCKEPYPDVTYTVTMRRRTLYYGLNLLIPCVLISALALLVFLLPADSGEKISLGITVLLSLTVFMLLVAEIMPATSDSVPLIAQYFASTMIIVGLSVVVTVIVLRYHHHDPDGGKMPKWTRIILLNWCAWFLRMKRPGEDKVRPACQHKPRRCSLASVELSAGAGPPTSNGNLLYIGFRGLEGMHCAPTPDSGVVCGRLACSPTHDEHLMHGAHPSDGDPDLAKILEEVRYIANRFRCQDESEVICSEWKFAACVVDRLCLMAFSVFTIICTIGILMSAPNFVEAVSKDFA

[2] = target: T2, α4β2-containing receptor subtype (Rattus norvegicus, UniProt P09483+P12390); assay: [3H]-NIC binding assay, rat striatal membranes; settings: for Specific binding of [3H]-NIC in the presence of compound: 3 nM [3H]-NIC, mean ± S.E.M of 3 experiments
T2 construct: Striata from two rats were dissected, pooled, and homogenized; from tissue; host or cells: rat striatal membranes
T2 sequence (P09483 31-630): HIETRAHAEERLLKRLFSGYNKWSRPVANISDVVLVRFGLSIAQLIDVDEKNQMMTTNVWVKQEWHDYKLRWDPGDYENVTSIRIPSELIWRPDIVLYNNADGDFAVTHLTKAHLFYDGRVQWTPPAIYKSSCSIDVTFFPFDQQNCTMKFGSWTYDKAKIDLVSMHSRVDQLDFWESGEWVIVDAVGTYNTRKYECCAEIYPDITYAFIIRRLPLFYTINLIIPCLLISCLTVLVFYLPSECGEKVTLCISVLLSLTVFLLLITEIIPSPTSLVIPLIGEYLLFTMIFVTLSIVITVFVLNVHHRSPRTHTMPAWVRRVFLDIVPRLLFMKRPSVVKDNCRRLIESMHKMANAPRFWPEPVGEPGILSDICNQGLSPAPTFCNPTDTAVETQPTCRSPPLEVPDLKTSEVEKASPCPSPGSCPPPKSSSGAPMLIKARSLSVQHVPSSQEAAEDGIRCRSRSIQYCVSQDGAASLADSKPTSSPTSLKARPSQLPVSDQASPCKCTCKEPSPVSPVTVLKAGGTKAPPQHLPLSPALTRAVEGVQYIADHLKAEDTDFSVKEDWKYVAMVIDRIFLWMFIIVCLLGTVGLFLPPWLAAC
T2 sequence (P12390 25-500): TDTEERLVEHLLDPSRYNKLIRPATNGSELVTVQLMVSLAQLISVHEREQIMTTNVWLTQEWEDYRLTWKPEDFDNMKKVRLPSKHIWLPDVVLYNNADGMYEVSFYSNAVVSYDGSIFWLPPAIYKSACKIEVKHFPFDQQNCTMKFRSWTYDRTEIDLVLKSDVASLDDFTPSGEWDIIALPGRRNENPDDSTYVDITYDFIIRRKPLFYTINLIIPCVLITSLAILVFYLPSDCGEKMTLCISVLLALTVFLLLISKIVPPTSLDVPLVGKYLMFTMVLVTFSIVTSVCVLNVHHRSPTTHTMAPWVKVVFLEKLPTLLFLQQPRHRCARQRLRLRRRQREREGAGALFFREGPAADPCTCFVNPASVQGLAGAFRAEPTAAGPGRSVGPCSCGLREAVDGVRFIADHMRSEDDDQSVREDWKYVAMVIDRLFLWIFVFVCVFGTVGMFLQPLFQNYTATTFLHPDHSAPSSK

[3] = target: T2, α4β2-containing receptor subtype; assay: [3H]-NIC binding assay, rat striatal membranes; settings: compared with NONI, NDNI, DHβE
Protocol: Striata from two rats were dissected, pooled, and homogenized with a Tekmar polytron in 10 vol of ice-cold modified Krebs-HEPES buffer (20 mM HEPES, 118 mM NaCl, 4.8 mM KCl, 2.5 mM CaCl2, 1.2 mM MgSO4, adjusted to pH 7.5). The homogenates were incubated at 37° C. for 5 minutes and centrifuged at 15,000 g for 20 minutes. The pellet was resuspended in 10 volumes of ice-cold MilliQ water, incubated for 5 minutes at 37° C., and centrifuged at 15,000 g for 20 minutes. The second pellet was then resuspended in 10 volumes of fresh ice-cold 10% Krebs-HEPES buffer, incubated at 37° C., and centrifuged at 15,000 g for 20 minutes. The latter sequence of resuspension, incubation, and centrifugation was repeated. The pellet was frozen under fresh 10% Krebs-HEPES buffer and stored at −40° C. until assayed. Upon assay, the pellet was resuspended in the Krebs-HEPES buffer, incubated at 37° C. for 5 minutes, and centrifuged at 15,000 g for 20 minutes. The final pellet was resuspended in 3.6 ml ice-cold MilliQ water which provided for approximately 200 μg protein per 100 μl aliquot. Competition assays were performed in triplicate in a final volume of 200 μl Krebs-HEPES buffer containing […] Tris buffer (pH 7.5 at 4° C.). Reactions were initiated by addition of 100 μl of membrane suspension to […] [^3H]-NIC (50 μl). and one of at least nine concentrations of analog (50 μl). After a 90 minutes incubation at […], reactions were terminated by dilution of the samples with 3 ml of ice-cold Krebs-HEPES buffer followed immediately by filtration through Whatman GF/B. glass fiber filters (presoaked in 0.5% polyethyleneimine) using a Brandel Cell Harvester. Filters were rinsed three times with. 3 ml of ice-cold Krebs-HEPES buffer, transferred to scintillation vials, and 5 ml scintillation cocktail (Research Products International Corp., Mt. Prospect, Ill.) added. Nonspecific binding determined in triplicate was defined as binding in the presence of 10 μM NIC. Binding parameters were determined using the weighted, least squares regression.
The conformationally restricted nicotine analogs were evaluated for their ability to displace [^3H]-NIC binding from rat striatal membranes.

Molecule	remaining activity at 10 µM [1]	Specific binding of [3H]-NIC in the presence of compound ([2]; compound 1 μM)	Specific binding of [3H]-NIC in the presence of compound ([2]; compound 10 μM)	Specific binding of [3H]-NIC in the presence of compound ([2]; compound 100 μM)	Affinity for the [3H]-NIC binding site (in words) [2]	Ki [1]	Affinity for the [3H]-NIC binding site (in words) [3]
CCCCCCCCC[n+]1ccc2c(c1)[C@@H]1[C@H](CC2)CCN1C.[I-] (relative stereo) [ACN, cis-1-methyl-8-nonyl-2,3,3a,4,5,9b-hexahydro-1H-pyrrolo[3,2-h]isoquinolin-8-ium iodide]	101%	49.8 ± 3.6 fmol/mg of protein	48.9 ± 2.9 fmol/mg of protein	30.2 ± 2.2 fmol/mg of protein	–	–	–
CCCCCCCCCCCC[n+]1ccc2c(c1)[C@@H]1[C@H](CC2)CCN1C.[I-] (relative stereo) [ACDD, cis-8-dodecyl-1-methyl-2,3,3a,4,5,9b-hexahydro-1H-pyrrolo[3,2-h]isoquinolin-8-ium iodide]	102%	49.5 ± 0.7 fmol/mg of protein	49.8 ± 2.9 fmol/mg of protein	44.5 ± 1.7 fmol/mg of protein	–	–	–
CCCCCCCCCCC[n+]1cccc2c1CCC1CCN(C)C21 (stereo not shown) [BCU]	92.3%	56.1 ± 0.6 fmol/mg of protein	53.9 ± 1.2 fmol/mg of protein	37.3 ± 1.8 fmol/mg of protein	–	–	–
CCCCCCCCCC[n+]1cccc([C@@H]2CCCN2C)c1.[I-] [NDNI, reference compound]	–	–	–	–	high affinity	–	–
α-Bungarotoxin [reference compound]	–	–	–	–	–	28.6 ± 5.4 nM	–
CCCCCCCC[n+]1cccc2c1CCC1CCN(C)C21 (stereo not shown) [BCO]	93.6%	50.5 ± 1.2 fmol/mg of protein	39.7 ± 1.4 fmol/mg of protein	13.5 ± 0.5 fmol/mg of protein	–	–	much lower affinity for the [^3H]-NIC binding site compared to NONI
CCCCCCCCCC[n+]1cccc2c1CCC1CCN(C)C21 (stereo not shown) [BCD]	96.2%	54.9 ± 0.7 fmol/mg of protein	54.4 ± 1.1 fmol/mg of protein	47.9 ± 2.8 fmol/mg of protein	–	–	lost their ability to interact with this binding site
CCCCCCCCC[n+]1cccc2c1CCC1CCN(C)C21 (stereo not drawn) [BCN, cis-1-methyl-6-nonyl-2,3,3a,4,5,9b-hexahydro-1H-pyrrolo[2,3-f]isoquinolin-6-ium iodide]	94%	49.6 ± 1.2 fmol/mg of protein	47.7 ± 2.1 fmol/mg of protein	36.2 ± 0.3 fmol/mg of protein	–	–	–
CCCCCCCCCCCC[n+]1cccc2c1CCC1CCN(C)C21 (stereo not drawn) [BCDD, cis-6-dodecyl-1-methyl-2,3,3a,4,5,9b-hexahydro-1H-pyrrolo[2,3-f]isoquinolin-6-ium iodide]	94.2%	43.7 ± 4.5 fmol/mg of protein	43.0 ± 4.7 fmol/mg of protein	34.0 ± 2.1 fmol/mg of protein	–	–	–
CCCCCCCCCC[n+]1ccc2c(c1)[C@@H]1[C@H](CC2)CCN1C.[I-] (relative stereo) [ACD, cis-8-decyl-1-methyl-2,3,3a,4,5,9b-hexahydro-1H-pyrrolo[3,2-h]isoquinolin-8-ium iodide]	102%	50.3 ± 3.7 fmol/mg of protein	52.1 ± 2.6 fmol/mg of protein	37.0 ± 1.7 fmol/mg of protein	–	–	lost their ability to interact with this binding site
CCCCCCCC[n+]1ccc2c(c1)[C@@H]1[C@H](CC2)CCN1C.[I-] (relative stereo) [ACO, cis-1-methyl-8-octyl-2,3,3a,4,5,9b-hexahydro-1H-pyrrolo[3,2-h]isoquinolin-8-ium iodide]	91.5%	44.5 ± 0.4 fmol/mg of protein	42.2 ± 0.5 fmol/mg of protein	30.2 ± 6.9 fmol/mg of protein	–	–	much lower affinity for the [^3H]-NIC binding site compared to NONI
CCCCCCCCCCC[n+]1ccc2c(c1)[C@@H]1[C@H](CC2)CCN1C.[I-] (relative stereo) [ACU, cis-1-methyl-8-undecyl-2,3,3a,4,5,9b-hexahydro-1H-pyrrolo[3,2-h]isoquinolin-8-ium iodide]	100%	51.3 ± 2.0 fmol/mg of protein	49.0 ± 0.3 fmol/mg of protein	42.7 ± 2.1 fmol/mg of protein	–	–	–
